Where no end group is shown, it is not given here.
Experiments:
Format in all cases: cell-based
[1] = test system: skeletal muscle cell line (C2C12); assay: Level of reactive oxygen species in TNF-α-stimulated skeletal muscle cells (DAPI and CellRox staining); settings: ucOCN 0.5 and 5 ng/ml vs untreated group, TNF-α 10 ng/ml, FIG. 3
Method: (§1) First, skeletal muscle cell lines (C2C12) were obtained. Undercarboxylated osteocalcin (ucOCN, purchased from Bachem, Switzerland) was treated in a medium (DMEM medium containing 10% heat-inactivated fetal bovine serum (FBS), 100 U/mL of penicillin and […] of streptomycin, hereinafter the same) at four different concentrations of 0 ng/ml, 0.5 ng/ml, 5 ng/ml and 50 ng/ml, and skeletal muscle cell lines (C2C12) were prepared in three groups and cultured and pre-treated at 5% CO2, 37° C. for 8 hours, 24 hours, and 48 hours, respectively.
(§2) In order to induce an inflammatory response, each medium was treated with 10 ng/ml of TNF-α (purchased from Peprotech, USA), and cultured for 8 hours under the same conditions.
In order to identify the level of reactive oxygen species (ROS) in the undercarboxylated osteocalcin-treated cells by being induced inflammatory response with TNF-α in skeletal muscle cells, the following experiment was performed.
The cells obtained in Example 1.1 above were stained with DAPI and CellRox, and observed under a microscope.

[2] = test system: JNK, p38 MAPK, and NF-κB; assay: Subcellular signaling in TNF-α-stimulated skeletal muscle cells (western blot); settings: C2C12; ucOCN 0.5 ng/ml pretreatment 1, 10, 30 minutes; TNF-α 10 ng/ml; FIG. 4
Method: In order to observe the effect of undercarboxylated osteocalcin on the subcellular signaling process on the inflammatory response induced by TNF-α in skeletal muscle cells, the following experiment was performed.
(§3) Undercarboxylated osteocalcin (ucOCN) was treated at a concentration of 0.5 ng/ml in the medium (DMEM medium containing 10% heat-inactivated fetal bovine serum (FBS), 100 U/mL of penicillin and […] of streptomycin, hereinafter the same), and skeletal muscle cell lines (C2C12) were prepared in three groups, and cultured and pre-treated at 5% CO2, 37° C. for 1 minute, 10 minutes, and 30 minutes, respectively.
(§4) In order to induce an inflammatory response, each medium was treated with TNF-α 10 ng/ml, and cultured for 8 hours under the same conditions.
For the cultured cells of each group, the protein amount and phosphorylation level of JNK, p38 MAPK, and NF-κB in each group were measured through western blot.

[3] = test system: NF-κB; assay: Inhibition of TNF-α-induced NF-κB activity in skeletal muscle cells (western blot, immunofluorescence)
Method: In order to observe the effect of undercarboxylated osteocalcin on the activity of NF-κB induced by TNF-α in skeletal muscle cells, the following experiment was performed.
as §3, §4
For the cultured cells of each group, the phosphorylation level and the protein amounts in the nucleus of IκBα, IKK (hereinafter, intracytoplasmic) and P65 NF-κB in each group were measured through western blot, and immunofluorescence analysis for each group was performed.

[4] = test system: macrophage cell lines (RAW 264.7); assay: TNF-α-induced inflammatory cytokines and inflammatory mediating enzyme proteins in immune cells (ELISA, western blot); settings: ucOCN 0.5, 5, 50 ng/ml pretreatment 8, 24, 48 hours, then TNF-α 10 ng/ml 8 hours, FIGS. 7 and 8
Method: First, macrophage cell lines (RAW 264.7) were obtained as immune cells. Undercarboxylated osteocalcin (ucOCN) was treated in a medium at four different concentrations of 0 ng/ml, 0.5 ng/ml, 5 ng/ml and 50 ng/ml, and macrophage cell lines were prepared in three groups and cultured and pre-treated at 5% CO2, 37° C. for 8 hours, 24 hours, and 48 hours, respectively.
In order to induce an inflammatory response, each medium was treated with 10 ng/ml of TNF-α, and cultured for 8 hours under the same conditions to obtain a supernatant.
In order to observe changes in the expression level of TNF-α-induced inflammatory cytokines (TNF-α and IL-6) and inflammatory mediating enzyme proteins (iNOS and COX-2) in immune cells by undercarboxylated osteocalcin, the following experiments were performed.
In each supernatant obtained from Example 2.1 above, the concentrations of TNF-α, IL-1β and IL-6 were measured through ELISA, and the expression level of […] was identified through western blot.

[5] = test system: skeletal muscle cell line (C2C12); assay: TNF-α-induced inflammatory cytokine production in skeletal muscle cells (ELISA, Real-Time PCR, western blot)
Method: as §1, §2
In order to observe the change in the expression level of TNF-α-induced inflammatory cytokines (TNF-α, IL-1β and IL-6) in skeletal muscle cells due to undercarboxylated osteocalcin, the following experiment was performed.
In the cells obtained from Example 1.1 above, the concentrations of TNF-α, IL-1β and IL-6 were measured through ELISA, and the expression levels of RNA and protein of IL-1β and IL-6 were identified through Real-Time PCR and western blot.

[6] = test system: NF-κB promoter; assay: TNF-α-induced NF-κB promoter (luciferase) activity; settings: stated in the description, no method given

Question: With “undercarboxylated osteocalcin (YLYQWLGAPVPYPDPLEPRREVCELNPDCDELADHIGFQEAYRRFYGPV; not fully specified; ends and bridges not checked; UniProt P02818 52-100, looked up) [osteocalcin in which at least one of the three gamma-carboxylglutamate residues is not γ-carboxylated; purchased from Bachem, Switzerland]” as the substance, how does the “level of reactive oxygen species” value [1] read?
Answer: significantly inhibited

Question: What about the “protein amount of NF-κB” value [2] of the same substance?
Answer: significantly inhibited

Question: What about the “protein amounts and phosphorylation levels of JNK and p38 MAPK” value [2] of the same substance?
Answer: significantly inhibited

Question: What about the “cytoplasmic-to-nuclear translocation of NF-κB induced by TNF-α” value ([3]; C2C12, immunofluorescence analysis, FIG. 6) of the same substance?
Answer: inhibited cytoplasmic-to-nuclear translocation of NF-κB

Question: What about the “PHOPHO-IκBα and total IκBα (TNF-α alone: phospho increased, total decreased)” value ([3]; C2C12 cytoplasm, ucOCN 0.5 ng/ml, TNF-α 10 ng/ml, FIG. 5) of the same substance?
Answer: showed the opposite result

Question: What about the “production of inflammatory cytokines TNF-α, IL-1β, IL-6 and inflammatory mediating enzyme proteins iNOS and COX-2” value [4] of the same substance?
Answer: inhibited the production of inflammatory cytokines and inflammatory mediating enzyme proteins

Question: And the IL-1β production ([5]; TNF-α 10 ng/ml, FIG. 1)?
Answer: inhibitory effect of IL-1β production among inflammatory cytokines was remarkably shown

Question: What about the “IL-1β production (protein amount)” value ([5]; all treatment concentrations of ucOCN (0.5, 5, 50 ng/ml), FIG. 2) of the same substance?
Answer: remarkable production inhibitory effect

Question: What about the “inhibition of inflammatory cytokine production by treatment time” value ([5]; group treated with ucOCN for 8 hours and 48 hours, FIG. 1) of the same substance?
Answer: remarkably excellent inhibitory effect

Question: What about the “TNF-α (protein amount)” value ([5]; group treated with ucOCN for 8 hours, FIG. 2) of the same substance?
Answer: excellent inhibitory effect

Question: And the “IL-6 (protein amount)” value ([5]; ucOCN 0.5 ng/ml and 5 ng/ml within 24 hours, FIG. 2)?
Answer: remarkable inhibitory effect

Question: What about the “production of inflammatory cytokines TNF-α, IL-1β and IL-6” value ([5]; ucOCN 0.5, 5, 50 ng/ml pretreatment 8, 24, 48 hours, then TNF-α 10 ng/ml 8 hours, FIG. 1) of the same substance?
Answer: inhibited the production of inflammatory cytokines

Question: What about the “TNF-α-induced NF-κB luciferase activity” value [6] of the same substance?
Answer: significantly inhibits
